US20060194814A1, “Benzamide compounds” (priority 2003, published 2006)
Where a name gives a salt, the structure may show the parent alone.

System: H295R human adrenal tumor cells
Test: MTT mitochondrial function/cell viability in H295R cells
Format: cell-based
Protocol: Cell viability at the end of the incubation protocol described above was assessed using the mitochondrial integrity 3-(4,5-dimethylthiazol-2-yl)-2,5-diphenyl tetrazolium bromide (MTT) assay (Trevigen, Gaithersburg, Md.). Briefly, 10 l of the MTT solution were added to the cells in 100 l medium. After an incubation period of 4 hours, 100 l of detergent were added and cells were incubated overnight at 37° C. Formazan blue formation was quantified at 600 nm and 690 nm using the Victor quantitative detection spectrophotometer (EGG-Wallac, Gaithersburg, Md.) and the results expressed as (OD600-OD690).

Structure (SMILES): CCN(CC)CCOC(=O)c1ccc(N)cc1 [SP01, procaine HCl]
- effect on dbcAMP-induced change of mitochondrial function (MTT): protected against the dbc-AMP-induced change of mitochondrial function
